Common to all, as to type: cell-based
For test [1], the system named is Bovine Pulmonary Artery Endothelium. As to the kind of experiment: Transendothelial electrical resistance (TER) across bovine pulmonary artery endothelium. Particulars: VEGF 100 ng/ml, Sph 1-P 1 μM, HGF 20 ng/ml. The protocol:
Bovine pulmonary artery endothelial cells were purchased from the American Type Culture Collection (ATCC®, Rockville, Md.) and utilized at passage 19-24. Cells were maintained in Medium 199 (Life Technologies, Rockville, Md.) supplemented with 20% (v/v) colostrum-free bovine serum (CFBS) (Irvine Scientific, Santa Ana, Calif.), 15 μg/ml endothelial cell growth supplement (Upstate Biotechnology, Lake Placid, N.Y.), 1% antibiotic and antimycotic, and 0.1 mM non-essential amino acids (Life Technologies). Human pulmonary artery endothelial cells were purchased from Clonetics (Walkersville, Md.), cultured in EBM-2 complete medium (Clonetics) and utilized at passage 5-10. Human alveolar epithelial cells (A549) were purchased from ATCC® and cultured in the same medium as the bovine endothelial cells, except that the endothelial cell growth supplement was omitted. All cells were maintained at 37° C. in a humidified atmosphere of 5% CO2 and 95% air.
Electrical resistance of EC monolayers was measured using electrical cell impedance sensor system (Applied Biophysics Inc., Troy, N.Y.) as described in Garcia, J. G. N. et al. (2000) J. Appl. Physiol. 89:2333-2343. Cells grown on gold microelectrodes (10^−3 cm^2) in polycarbonate wells act as insulating particles, and the resistance across the monolayers (transendothelial electrical resistance, or TER) is measured in real time. As cells adhere on the microelectrode and intercellular cell contacts are formed or in response to agents which increase junctional integrity, the TER increases (Garcia, J. G. N. et al. (2001) J. Clin. Invest. 108:689-711). In contrast, cell retraction, rounding, or loss of adhesion is reflected by decreases in TER (Garcia, J. G. N. et al. (2000) J. Appl. Physiol. 89:2333-2343). These measurements provide a highly sensitive biophysical assay that indicates the state of cell shape, focal adhesion, and endothelial barrier function (Giaever, I. and Keese, C. R. (1993) Nature 366:591-592; Tiruppathi, C. et al. (1992) Proc. Natl. Acad. Sci. USA 89:7919-7923). All electrical resistance data are presented as normalized values. Briefly, current was applied across the electrodes by a 4000 Hz AC voltage source with an amplitude of 1 V in series with a 1 MΩ resistance to approximate a constant current source (−1 μA). The small gold electrode and the larger counter electrode (1 cm^2) were connected to a phase-sensitive lock-in amplifier (5301A; EG&G Instruments Corp, Princeton, N.J.) with a built in differential preamplifier (5316A; EG&G Instruments Corp.). The in-phase and out-of-phase voltages between the electrodes were monitored in real time with the lock-in amplifier and converted to scalar measurements of transendothelial impedance, of which resistance was the primary focus. […] For some experiments, total TER was vectorially resolved into components reflecting resistance to current flow beneath the cell layer (α) and resistance to current flow between adjacent cells (Rb) as described in Garcia et al. (2000) supra utilizing the method of Giaiver and Keese which models the endothelial monolayer mathematically (Giaever, I. and Keese, C. R. (1993) Nature 366:591-592). Thus, changes in α reflect alterations in the net state of cell-matrix adhesion, whereas changes in Rb reflect alterations in the integrity of cell-cell adhesion. TER values from each microelectrode were pooled at discrete time points and plotted versus time as the mean±standard error of the mean (Garcia et al. (2000) supra).

Test [2] has as its system human alveolar epithelial cells (A549). As to the kind of experiment: Electrical resistance of A549 alveolar epithelial cells on gold microelectrodes. Particulars: HGF 100 ng/mL; sphingosine 1-phosphate 1 μM. On the procedure: FIGS. 1A-1D depict HGF-mediated increases in human transendothelial electrical resistance (TER). FIG. 1A: Human pulmonary artery endothelial cells were grown to confluence on gelatinized gold microelectrodes. Two hours prior to TER measurement, growth medium was replaced with serum-free M199. Serial-diluted HGF was added to cells at indicated concentrations and TER monitored for 2.5 hr. […] The result shown is a representative TER tracing of three independent experiments. FIG. 1B: Similar to FIG. 1A, human alveolar epithelial cells (A549) were grown on gold microelectrodes and challenged with vehicle, HGF, (100 ng/mL) or sphingosine 1-phosphate (1 μM). […]
Electrical resistance of EC monolayers was measured using electrical cell impedance sensor system (Applied Biophysics Inc., Troy, N.Y.) as described in Garcia, J. G. N. et al. (2000) J. Appl. […] Cells grown on gold microelectrodes (10^−3 cm^2) in polycarbonate wells act as insulating particles, and the resistance across the monolayers (transendothelial electrical resistance, or TER) is measured in real time. […] The in-phase and out-of-phase voltages between the electrodes were monitored in real time with the lock-in amplifier and converted to scalar measurements of transendothelial impedance, of which resistance was the primary focus. […]

In test [3] the test system is Rac GTPase. As to the kind of experiment: Rac GTPase activity, p21 Rac-binding domain assay. Particulars: HGF 10 ng/mL or Sph-1-P 1 μM for 1 or 5 min.
Experimental: Endothelial cells grown in 100 mm dishes were incubated with agonists in serum-free M199. Cells were lysed in 500 μl Mg^2+ lysis buffer (Upstate Biotechnology, Lake Placid, N.Y.) and homogenized by pipetting. After a brief centrifugation to remove the cell debris, 300 μl of supernatant was incubated with the agarose-conjugated p21-binding domain (PBD) of human PAK-1 (10 μg, 30 min, Upstate Biotechnology). The agarose beads were washed with 1 ml of lysis buffer 5 times and re-suspended in 30 μl of 2×SDS buffer. After 10 min centrifugation at 14,000 g, 15 μl of supernatant from each sample was subjected to electrophoresis in 15% PAGE. […] For total Rac protein measurement, 5 μl of the original cell lysates were used for electrophoresis and western analysis. […] Pulmonary artery endothelial cells were incubated with HGF (10 ng/mL) or Sph-1-P (1 μM) for 1 or 5 min. Cells were lysed, supernatants collected, and activated GTP-bound Rac was precipitated by agarose-conjugated human PAK-1 p21-binding domain and subsequently immunoblotted by anti-Rac mAb. Total Rac protein was detected using cell lysates.
Setting [4] is: vs vehicle control, ±SEM, thrombin 100 μM.

The values below come from patent publication US20050004029A1, “Methods and compositions for treating vascular leak using hepatocyte growth factor” (priority 2001, published 2005).

SMILES strings stand for the structures.

As for `CCCCCCCCCCCCC/C=C/[C@@H](O)[C@@H](N)COP(=O)(O)O` [Sph 1-P, sphingosine 1-phosphate, reference compound], in test [1] (thrombin, 10-60 min), the “TER response in words” value is “brisk and sustained increase in TER”. In test [1] (setting [4]), the “changes in TER 30 min” value is “+50 ± 6%” and the “changes in TER 60 min” value was “+35 ± 4%”. The “changes in TER 10 min” value in test [1] (vs vehicle control, ±SEM, thrombin 100 μM, (+) increased, (−) decreased) is recorded as “+50 ± 5%”. Also, the “effect on electrical resistance of epithelial cells” value in test [2] is “did enhance epithelial cell integrity”. The Rac activity result in test [3] is “rapidly and transiently increases Rac activity”.
